Source: patent US8946234B2, “Halogen-substituted compounds” (Bayer CropScience AG, priority 2008, dated 2015)

Key:
[1] = logP by HPLC on a C18 phase inversion column, EEC Directive 79/831 Annex V.A8, method b) (HP1100, 5-95% acetonitrile in 1.70 min); type: physicochemical; details: HPLC method b)
Protocol: ^b) Note regarding the determination of the log P values and mass detection: The log P values given were determined in accordance with EEC Directive 79/831 Annex V.A8 by HPLC (High Performance Liquid Chromatography) on a phase inversion column (C18). HP1100; 50*4.6 Zorbax Eclipse Plus C18 1.8 micron; eluent A: acetonitrile (0.1% formic acid); eluent B: water (0.08% formic acid); linear gradient from 5% acetonitrile to 95% acetonitrile in 1.70 min, then 95% acetonitrile for a further 1.00 min; oven temperature 55° C.; flow: 2.0 ml/min. The mass detection is carried out via the mass detector Micromass ZQ2000 from Waters.

physchem = type: physicochemical
Summary of the method: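 Reversed-phase C18 HPLC (50×4.6 mm, 1.8 micron), 55 °C, 2.0 ml/min, acetonitrile/water with formic acid. Linear gradient 10% to 95% acetonitrile over 4.25 min, then 95% for 1.25 min. logP derived from retention per EEC Directive 79/831 Annex V.A8; MS detection.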

Compound	logP [1]	logP (physchem)
CCc1c(C(F)(F)C(F)(F)F)nn(C)c1C(=O)Nc1ccc(Cl)c(C(=O)NCc2ccccc2)c1 [Ik-272]	3.68^b)	
CC(C)N(C)C(=O)c1cc(NC(=O)c2c(C(F)(F)F)c(C(F)(F)C(F)(F)F)nn2C)ccc1Cl [Ik-35]	3.73^b)	
Cc1ccc(CNC(=O)c2cc(NC(=O)c3c(C(F)(F)F)c(C(F)(F)C(F)(F)F)nn3C)ccc2Cl)cc1 [Ik-306]	3.94^b)	
Cn1nc(C(F)(F)C(F)(F)F)c(C(F)(F)F)c1C(=O)Nc1ccc(Cl)c(C(=O)NCCOCC(F)(F)F)c1 [Ik-281]	3.53^b)	
Cn1nc(C(F)(F)C(F)(F)F)c(C(F)(F)F)c1C(=O)Nc1ccc(Cl)c(C(=O)NC(C)(C)C=C(Cl)Cl)c1 [Ik-44]	4.28^b)	
Cn1nc(C(F)(F)C(F)(F)F)c(C(F)(F)F)c1C(=O)Nc1ccc(Cl)c(C(=O)NC2COC2)c1 [Ik-32]	2.76^b)	
CC(C#N)NC(=O)c1cc(NC(=O)c2c(C(F)(F)F)c(C(F)(F)C(F)(F)F)nn2C)ccc1Cl (stereo not shown) [Ik-292]	3.02^b)	
C#CC(C)NC(=O)c1cc(NC(=O)c2c(C(F)(F)F)c(C(F)(F)C(F)(F)F)nn2C)ccc1Cl (stereo not shown) [Ik-293]	3.28^b)	
CC(O)CNC(=O)c1cc(NC(=O)c2c(C(F)(F)F)c(C(F)(F)C(F)(F)F)nn2C)ccc1Cl (stereo not shown) [Ik-33]	2.65^b)	
Cc1cccc(CNC(=O)c2cc(NC(=O)c3c(C(F)(F)F)c(C(F)(F)C(F)(F)F)nn3C)ccc2Cl)c1 [Ik-304]	3.94^b)	
C/C(Cl)=C/CNC(=O)c1cc(NC(=O)c2c(C(F)(F)F)c(C(F)(F)C(F)(F)F)nn2C)ccc1Cl [Ik-295]	3.73^b)	
Cn1nc(C(F)(F)C(F)(F)F)c(C(F)(F)F)c1C(=O)Nc1ccc(Cl)c(C(=O)NC(C)(C)C#N)c1 [Ik-274]	3.37^b)	
C=C(C)CNC(=O)c1cc(NC(=O)c2c(C(F)(F)F)c(C(F)(F)C(F)(F)F)nn2C)ccc1Cl [Ik-50]	3.53^b)	
Cn1nc(C(F)(F)C(F)(F)F)c(C(F)(F)F)c1C(=O)Nc1ccc(Cl)c(C(=O)NCc2c(F)cccc2F)c1 [Ik-37]	3.73^b)	
C[C@@H](NC(=O)c1cc(NC(=O)c2c(C(F)(F)F)c(C(F)(F)C(F)(F)F)nn2C)ccc1Cl)C(F)(F)F [Ik-307]	3.78^b)	
CCC1CC1NC(=O)c1cc(NC(=O)c2c(C(F)(F)F)c(C(F)(F)C(F)(F)F)nn2C)ccc1Cl (stereo not shown) [Ik-286]	3.84^b)	
Cn1nc(C(F)(F)C(F)(F)F)c(C(F)(F)F)c1C(=O)Nc1ccc(Cl)c(C(=O)NCc2ccncc2)c1 [Ik-313]	1.93^b)	
CC(CF)NC(=O)c1cc(NC(=O)c2c(C(F)(F)F)c(C(F)(F)C(F)(F)F)nn2C)ccc1Cl (stereo not shown) [Ik-290]	3.28^b)	
Cn1nc(C(F)(F)C(F)(F)F)c(C(F)(F)F)c1C(=O)Nc1ccc(Cl)c(C(=O)NC2C=CS(=O)(=O)C2)c1 (stereo not shown) [Ik-278]	2.80^b)	
Cn1nc(C(F)(F)C(F)(F)F)c(C(F)(F)F)c1C(=O)Nc1ccc(Cl)c(C(=O)NCC#N)c1 [Ik-48]	2.93^b)	
CSCC(C)(C)NC(=O)c1cc(NC(=O)c2c(C(F)(F)F)c(C(F)(F)C(F)(F)F)nn2C)ccc1Cl [Ik-289]	4.05^b)	
Cn1nc(C(F)(F)C(F)(F)F)c(C(F)(F)F)c1C(=O)Nc1ccc(Cl)c(C(=O)NC2CCCC2)c1 [Ik-39]	3.78^b)	

Compound	logP [1]	logP (physchem)
Cn1nc(C(F)(F)C(F)(F)F)c(C(F)(F)F)c1C(=O)Nc1ccc(Cl)c(C(=O)NCc2ccccc2F)c1 [Ik-52]	3.73^b)	
Cn1nc(C(F)(F)C(F)(F)F)c(C(F)(F)F)c1C(=O)Nc1ccc(Cl)c(C(=O)NCc2ccc(Cl)cc2)c1 [Ik-283]	4.05^b)	
Cc1c(C(F)(F)C(F)(F)F)nn(C)c1C(=O)Nc1ccc(Cl)c(C(=O)NCc2ccccc2)c1 [Ik-271]	3.42^b)	
Cn1nc(C(F)(F)C(F)(F)F)c(C(F)(F)F)c1C(=O)Nc1ccc(Cl)c(C(=O)NCCC(F)(F)F)c1 [Ik-291]	3.53^b)	
C[C@H]1C[C@H]1NC(=O)c1cc(NC(=O)c2c(C(F)(F)F)c(C(F)(F)C(F)(F)F)nn2C)ccc1Cl [Ik-279]	3.37^b)	
COC(=O)CNC(=O)c1cc(NC(=O)c2c(C(F)(F)F)c(C(F)(F)C(F)(F)F)nn2C)ccc1Cl [Ik-34]	3.04^b)	
Cc1ccccc1CNC(=O)c1cc(NC(=O)c2c(C(F)(F)F)c(C(F)(F)C(F)(F)F)nn2C)ccc1Cl [Ik-305]	3.89^b)	
Cn1cc(C(F)(F)F)nc1C(NC(=O)c1cc(NC(=O)c2c(C(F)(F)F)c(C(F)(F)C(F)(F)F)nn2C)ccc1Cl)C(F)(F)F (stereo not shown) [Ik-276]	4.00^b)	
CC(NC(=O)c1cc(NC(=O)c2c(C(F)(F)F)c(C(F)(F)C(F)(F)F)nn2C)ccc1Cl)c1ccccc1 (stereo not shown) [Ik-38]	3.89^b)	
Cn1nc(C(F)(F)C(F)(F)F)c(C(F)(F)F)c1C(=O)Nc1ccc(Cl)c(C(=O)NCc2cc(F)ccc2F)c1 [Ik-54]	3.84^b)	
Cn1nc(C(F)(F)C(F)(F)F)c(C(F)(F)F)c1C(=O)Nc1ccc(Cl)c(C(=O)NCC2(C)COC2)c1 [Ik-45]	2.98^b)	
CCCC(NC(=O)c1cc(NC(=O)c2c(C(F)(F)F)c(C(F)(F)C(F)(F)F)nn2C)ccc1Cl)C(F)(F)F (stereo not shown) [Ik-298]	4.11^b)	
Cn1nc(C(F)(F)C(F)(F)F)c(C(F)(F)F)c1C(=O)Nc1ccc(Cl)c(C(=O)NC(C)(C)CC(F)(F)F)c1 [Ik-300]	4.00^b)	
CN(C(=O)c1cc(NC(=O)c2c(C(F)(F)F)c(C(F)(F)C(F)(F)F)nn2C)ccc1Cl)C1CC1 [Ik-31]	3.51^b)	
CCCNC(=O)c1cc(NC(=O)c2c(C(F)(F)F)c(C(F)(F)C(F)(F)F)nn2C)ccc1Cl [Ik-30]	3.23^b)	
Cn1nc(C(F)(F)C(F)(F)F)c(C(F)(F)F)c1C(=O)Nc1ccc(Cl)c(C(=O)NCCc2ccc(Cl)cc2)c1 [Ik-40]	4.23^b)	
Cn1nc(C(F)(F)C(F)(F)F)c(C(F)(F)F)c1C(=O)Nc1ccc(Cl)c(C(=O)NCC2CC2(C)C)c1 (stereo not shown) [Ik-46]	4.11^b)	
CC(NC(=O)c1cc(NC(=O)c2c(C(F)(F)F)c(C(F)(F)C(F)(F)F)nn2C)ccc1Cl)c1ccccc1F (stereo not shown) [Ik-284]	4.00^b)	
Cn1nc(C(F)(F)C(F)(F)F)c(C(F)(F)F)c1C(=O)Nc1ccc(Cl)c(C(=O)NC2CC2c2ccccc2)c1 (stereo not shown) [Ik-47]	4.00^b)	
CCC(NC(=O)c1cc(NC(=O)c2c(C(F)(F)F)c(C(F)(F)C(F)(F)F)nn2C)ccc1Cl)C(F)(F)F (stereo not shown) [Ik-297]	3.89^b)	
Cn1nc(C(F)(F)C(F)(F)F)c(C(F)(F)F)c1C(=O)Nc1ccc(Cl)c(C(=O)NCc2ccccc2Cl)c1 [Ik-282]	4.05^b)	
Cn1nc(C(F)(F)C(F)(F)F)c(C(F)(F)F)c1C(=O)Nc1ccc(Cl)c(C(=O)NCc2ccc(F)c(F)c2)c1 [Ik-309]	3.94^b)	

Compound	logP [1]	logP (physchem)
CCOCCNC(=O)c1cc(NC(=O)c2c(C(F)(F)F)c(C(F)(F)C(F)(F)F)nn2C)ccc1Cl [Ik-53]	3.28^b)	
CC(NC(=O)c1cc(NC(=O)c2c(C(F)(F)F)c(C(F)(F)C(F)(F)F)nn2C)ccc1Cl)c1cccc(F)c1 (stereo not shown) [Ik-303]	3.89^b)	
CC(CC(F)(F)F)NC(=O)c1cc(NC(=O)c2c(C(F)(F)F)c(C(F)(F)C(F)(F)F)nn2C)ccc1Cl (stereo not shown) [Ik-299]	3.63^b)	
Cn1nc(C(F)(F)C(F)(F)F)c(C(F)(F)F)c1C(=O)Nc1ccc(Cl)c(C(=O)NCC(C)(C)CF)c1 [Ik-42]	3.68^b)	
Cn1nc(C(F)(F)C(F)(F)F)c(C(F)(F)F)c1C(=O)Nc1ccc(Cl)c(C(=O)NCc2cccc(F)c2)c1 [Ik-49]	3.78^b)	
Cn1nc(C(F)(F)C(F)(F)F)c(C(F)(F)F)c1C(=O)Nc1ccc(Cl)c(C(=O)NC2CC=CC2)c1 [Ik-287]	3.63^b)	
Cn1nc(C(F)(F)C(F)(F)F)c(C(F)(F)F)c1C(=O)Nc1ccc(Cl)c(C(=O)NCc2ncn[nH]2)c1 [Ik-29]	2.31^b)	
Cn1nc(C(F)(F)C(F)(F)F)c(C(F)(F)F)c1C(=O)Nc1ccc(Cl)c(C(=O)NC2CC2(F)F)c1 (stereo not shown) [Ik-6]	3.33^b)	
Cc1csc(C(NC(=O)c2cc(NC(=O)c3c(C(F)(F)F)c(C(F)(F)C(F)(F)F)nn3C)ccc2Cl)C(F)(F)F)n1 (stereo not shown) [Ik-277]	4.00^b)	
Cn1nc(C(F)(F)C(F)(F)F)c(C(F)(F)F)c1C(=O)Nc1ccc(Cl)c(C(=O)NCc2ccc(F)cc2F)c1 [Ik-308]	3.94^b)	
Cn1nc(C(F)(F)C(F)(F)F)c(C(F)(F)F)c1C(=O)Nc1ccc(Cl)c(C(=O)NC2(C(F)(F)F)CC2)c1 [Ik-296]	3.58^b)	
Cn1nc(C(F)(F)C(F)(F)F)c(C(F)(F)F)c1C(=O)Nc1ccc(Cl)c(C(=O)NCc2ccc(F)cc2)c1 [Ik-312]	3.73^b)	
Cn1nc(C(F)(F)C(F)(F)F)c(C(F)(F)F)c1C(=O)Nc1ccc(Cl)c(C(=O)NCc2ccon2)c1 [Ik-43]	3.02^b)	
CC(C)[C@H](NC(=O)c1cc(NC(=O)c2c(C(F)(F)F)c(C(F)(F)C(F)(F)F)nn2C)ccc1Cl)C(F)(F)F [Ik-310]	3.89^b)	
Cn1nc(C(F)(F)C(F)(F)F)c(C(F)(F)F)c1C(=O)Nc1ccc(Cl)c(C(=O)NC2CC2F)c1 (stereo not shown) [Ik-311]	3.28^b)	
COCC(C)(C#N)NC(=O)c1cc(NC(=O)c2c(C(F)(F)F)c(C(F)(F)C(F)(F)F)nn2C)ccc1Cl (stereo not shown) [Ik-275]	3.37^b)	
Cn1nc(C(F)(F)C(F)(F)F)c(C(F)(F)F)c1C(=O)Nc1ccc(Cl)c(C(=O)NC(C)(C)CS(C)(=O)=O)c1 [Ik-301]	3.02^b)	
Cn1nc(C(F)(F)C(F)(F)F)c(C(F)(F)F)c1C(=O)Nc1ccc(Cl)c(C(=O)NCc2nc(C(F)(F)F)cs2)c1 [Ik-273]	3.75^b)	
CC(C)N(C(=O)c1c(C(F)(F)F)c(C(F)(F)C(F)(F)F)nn1C)c1ccc(Cl)c(C(=O)NCC(F)(F)F)c1 [Ik-139]		4.02^a)
Cn1nc(OC(F)F)c(I)c1C(=O)Nc1ccc(Cl)c(C(=O)NC2CC2)c1 [Ik-240]		2.54^a)
